Reference: patent publication US11360010B1, “Methods and device for controlled cell stretch and imaging” (The Regents of the University of Colorado, a body, priority 2019, dated 2022)
“Also recorded” adds a separate entry of the source.

Tests used:
[1] = tested on: mouse embryonic skin fibroblasts (MSFs); test: Live imaging of nuclear area and chromatin condensation (H2b-eGFP) during cyclic stretch routines; assay type: cell-based; details: for change in nuclear area / chromatin condensation (H2b histogram kurtosis and skewness): BAPTA 50 μM, KN-62 10 μM, cytochalasin D 2 μM
Method: (§1) Transgenic mice harboring a fluorescence tag at the H2b histone—B6.Cg-Tg (HIST1H2BB/EGFP) 1 Pa/J, Stock No: 006069—were obtained from Jackson Laboratory (Bar Harbor, Me.). All animal procedures were performed following Institutional Animal Care & Use Committee approval. Skin from embryonic mice was harvested 18.5 days post-conception. Skin was minced, washed with Hank's Balanced Salt Solution (HBSS), and incubated in 35 mm dishes in shallow medium (˜0.5 mL) to avoid floating of the tissue for 4 days, during which fibroblasts extruded from the tissue. After 4 days, remaining tissue was removed (picked out with a pipette), and extruded cells in the dish were detached using TrypLE (Gibco, Gaithersburg, Md.) and expanded in culture for another 2 days before being seeded into stretch chambers for experiments. The inner well of assembled stretch chambers was ozone activated for 30 s via corona arc discharge (BD-20; Electro-Technic Products) and coated with 50 μg/mL bovine plasma fibronectin (F1141; Sigma-Aldrich) in a total volume of 250 μL overnight at 37° C. Mouse embryonic skin fibroblasts (MSFs) were seeded into stretch chambers at a density of 80,000 cells/cm′ 1 day before experiments. MSFs were extruded and cultured in DMEM (ATCC, Manassas, Va.) containing 10% fetal bovine serum (Gibco), 1% penicillin-streptomycin (Gibco), and 25 mM HEPES (Gibco) at 37° C. and 5% CO2. To inhibit calcium signaling, MSFs were incubated with 50 μM BAPTA (A4926; Sigma-Aldrich) or 10 μM KN-62 (12142; Sigma-Aldrich) 1 h before cyclic strain experiments. To disrupt actin polymerization, MSFs were incubated with 2 μM cytochalasin D (C8273; Sigma-Aldrich) 30 min before experiments. Vehicle controls were incubated with 0.001% DMSO (276855; Sigma-Aldrich) 1 h before experiments. To test the use of chromatin dyes, cells were stained with Hoechst (NucBlue Live ReadyProbes; Life Technologies) 30 min before experiments. Stretch experiments were performed at 25° C. (room temperature) under humidified conditions.
The stretch device was mounted on an inverted epi-fluorescence microscope (Ti-Eclipse; Nikon) with a 60× water immersion objective (0.26 μm/pixel) and an EMCCD camera (iXonEM+; Andor Technology). The surrounding of the microscope was humidified to prevent the water on the objective from evaporating during the 1 h experiment. Oil immersion is also possible, but water immersion provided better image quality with the silicone membranes used.
Using MATLAB, a sinusoidal control signal (1 Hz) was sent to the Arduino controller, resulting in a cyclic stretch routine of the membrane (FIG. 1C), with peak strains set to 5% (−0.1 V), 10% (−0.9 V), and 20% (−2.25 V) as determined by the calibration curve. Cells were cyclically stretched for 30 min, followed by 30 min of rest, during which 2 μm z-stacks (0.5 μm steps) of nuclei were acquired. During the rest period, cells experienced no stretch but a constant magnetic field using the offset Arduino input voltage (0.8 V) that keeps the piston suspended at 0% stretch. For acquisition, the cyclic stretch routine was paused for 1 min to allow for a steady imaging plane and fine readjustments in z-position due to water evaporation. Unstretched control cells (0%) were seeded into stretch chambers but kept stationary on the microscope without any magnetic field applied. Unstretched magnetic control cells (MAG) were placed stationary inside the coil without the piston, and a magnetic field corresponding to a 20% sinusoidal stretch routine was applied.
A custom MATLAB code was used to track nuclear outlines via H2b-eGFP and to generate H2b intensity histograms during an image series, from which changes in nuclear area, H2b skewness, and H2b kurtosis were calculated.

[2] = tested on: mouse embryonic skin fibroblasts (MSFs); test: Perinuclear F-actin and γH2a.x staining after cyclic stretch routines; assay type: cell-based; details: BAPTA 50 μM, KN-62 10 μM, cytochalasin D 2 μM
Method: as §1
MSFs were fixed in 4% ice-cold paraformaldehyde (PFA) for 10 min, permeabilized with 1% Triton-X100 in phosphate-buffered saline for 15, min and blocked with 10% NGS, 1% bovine serum albumin in 0.1% PBT (0.1% Tween-20 in phosphate-buffered saline) for 60 min. Primary incubation of Phospho-Histone H2A.X Ser139 (9718S; Cell Signaling Technology, Danvers, Mass.) was performed at 4° C. overnight in 0.1% PBT containing 1% bovine serum albumin at 1:400. Secondary incubation of goat anti-rabbit IgG-AF546 (Life Technologies) was performed in primary incubation buffer for 45 min at 22° C. at a dilution of 1:500. F-actin was counterstained with phalloidin-CF405 (Biotium, Fremont, Calif.) for 30 min at a dilution of 1:30. Staining was performed in containment wells. After staining, membranes were cut out of the containment well using a circular punch and mounted cell-side up onto #1.0 glass slides with ProLong Diamond Antifade Mountant (Life Technologies). Image stacks (5 μm, 1 μm step) of multiple nuclei in a 318×318 μm area were acquired on a Nikon MR confocal microscope using a 40× oil immersion objective (0.31 μm/pixel). A custom MATLAB code was used to track nuclear outlines via H2b-eGFP and to quantify perinuclear F-actin intensities and γH2a.x foci in projected image stacks. Only the projected F-actin within the nuclear outline (apical perinuclear F-actin) was counted in this analysis. To account for variations in staining and imaging (the same imaging settings were used), fluorescence channels were histogram normalized. Perinuclear F-actin intensities were calculated as the sum of normalized phalloidin intensities within a nuclear border. DNA damage foci were determined by detecting 2D peaks in the normalized γH2a.x channel using the MATLAB script FastPeakFind (v. 1.7).

[3] = 30 min 5% cyclic strain, 1 Hz, vs NT/VH cells (area increases)
[4] = 30 min 5% cyclic strain, 1 Hz, vs NT/VH cells (condensation decreases)
[5] = 30 min 20% cyclic strain, 1 Hz, vs NT/VH cells (area decreases)
[6] = 30 min 20% cyclic strain, 1 Hz, vs NT/VH cells (condensation increases)
[7] = static magnetic-field-only routine (MAG), no stretch
[8] = after 30 min 5% cyclic stretch, vs NT or VH control cells
[9] = after 30 min 20% cyclic stretch, vs NT or VH control cells
[10] = 20% cyclic strain 30 min, Hoechst-stained vs unstained (H2b) nuclei

With `O=C(O)CN(CC(=O)O)c1ccccc1OCCOc1ccccc1N(CC(=O)O)CC(=O)O` [BAPTA] as the compound, how does the “change in nuclear area” value [1, 3] read?
Its value is “abrogated the increase in nuclear area”.

And the “chromatin condensation (H2b histogram kurtosis and skewness)” value [1, 4]?
Its value is “abrogated the increase in nuclear area and decrease in chromatin condensation”.

And the “change in nuclear area” value [1, 5]?
The value was “only minorly effected”.

And the “change in nuclear area” value ([1]; 30 min 20% cyclic strain, 1 Hz, vs NT/VH cells (area decreases), listed as BP)?
The value was “had no effect”.

And the “chromatin condensation (H2b histogram kurtosis and skewness)” value [1, 6]?
The value was “only minorly effected”.

What about the “chromatin condensation (H2b histogram kurtosis and skewness)” value ([1]; 30 min 20% cyclic strain, 1 Hz, vs NT/VH cells (condensation increases), listed as BP) of the same compound?
The value was “had no effect”.

And the “change in nuclear area” value [1, 7]?
Its value is “interfered with the slight decrease in nuclear area”.

What about the “chromatin condensation (H2b histogram kurtosis and skewness)” value [1, 7] of the same compound?
Its value is “interfered with the slight decrease in nuclear area and increase in chromatin condensation”.

And the “number of γH2a.x foci per nucleus (DNA damage, double-strand breaks)” value (shortened to “number of γH2a.x foci per nucleus”) [2, 8]?
The value was “showed no difference”.

What about the “perinuclear F-actin intensities” value ([2]; after 30 min 5% cyclic stretch, vs NT or VH control cells, listed as BP) of the same compound?
Its value is “abrogated increases; also recorded: abrogated the increase”.

And the “number of γH2a.x foci per nucleus” value [2, 9]?
Its value is “showed no difference”.

What about the “number of γH2a.x foci per nucleus” value ([2]; static magnetic-field-only controls (MAG), listed as BP) of the same compound?
Its value is “increased DNA damage”.

What does the source list for `CCOc1ccc(-c2nc3ccc(-c4nc5ccc(N6CCN(C)CC6)cc5[nH]4)cc3[nH]2)cc1` [Hoechst, Hoechst 33342]?
change in nuclear area during stretch [1, 10]: reduction in nuclear area similar to unstained nuclei; chromatin condensation (histogram kurtosis and skewness) during stretch [1, 10]: reduced chromatin condensation; also recorded: Reduced chromatin compaction; change in nuclear area during rest ([1]; 30 min rest after 20% cyclic strain, Hoechst-stained vs unstained (H2b) nuclei): no regain in nuclear areas; also recorded: no recovery; also recorded: no relaxation

Which “change in nuclear area” value [1, 3] does the source give for `CN([C@@H](Cc1ccc(OS(=O)(=O)c2cccc3cnccc23)cc1)C(=O)N1CCN(c2ccccc2)CC1)S(=O)(=O)c1cccc2cnccc12` [KN-62] here?
The value was “abrogated the increase in nuclear area”.

What about the “chromatin condensation (H2b histogram kurtosis and skewness)” value [1, 4] of the same compound?
The value was “abrogated the increase in nuclear area and decrease in chromatin condensation”.

And the “change in nuclear area” value [1, 5]?
The value was “only minorly effected”.

What about the “change in nuclear area” value ([1]; 30 min 20% cyclic strain, 1 Hz, vs NT/VH cells (area decreases), listed as KN) of the same compound?
The value was “had no effect”.

And the “chromatin condensation (H2b histogram kurtosis and skewness)” value [1, 6]?
The value was “only minorly effected”.

And the “chromatin condensation (H2b histogram kurtosis and skewness)” value ([1]; 30 min 20% cyclic strain, 1 Hz, vs NT/VH cells (condensation increases), listed as KN)?
Its value is “had no effect”.

And the “change in nuclear area” value [1, 7]?
The value was “interfered with the slight decrease in nuclear area”.

What about the “chromatin condensation (H2b histogram kurtosis and skewness)” value [1, 7] of the same compound?
Its value is “interfered with the slight decrease in nuclear area and increase in chromatin condensation”.

What about the “number of γH2a.x foci per nucleus” value [2, 8] of the same compound?
The value was “showed no difference”.

And the “perinuclear F-actin intensities” value ([2]; after 30 min 5% cyclic stretch, vs NT or VH control cells, listed as KN)?
The value was “abrogated increases; also recorded: abrogated the increase”.

And the “number of γH2a.x foci per nucleus” value [2, 9]?
The value was “showed no difference”.

And the “number of γH2a.x foci per nucleus” value ([2]; static magnetic-field-only controls (MAG), listed as KN)?
Its value is “increased DNA damage”.
